Data on one molecule can be found in ChEMBL document CHEMBL5226299, “Targeting Lysosomal Degradation Pathways: New Strategies and Techniques for Drug Discovery” (J Med Chem, 2021).

This test deals with Methionine aminopeptidase 2 (Homo sapiens) (UniProt P50579). The experiment in a line: Induction of MetAP-2 degradation in human HeLa cells at 10 uM relative to control. The format is cell-based.
Chain of Methionine aminopeptidase 2 (Homo sapiens) (P50579 2-478 limits assumed): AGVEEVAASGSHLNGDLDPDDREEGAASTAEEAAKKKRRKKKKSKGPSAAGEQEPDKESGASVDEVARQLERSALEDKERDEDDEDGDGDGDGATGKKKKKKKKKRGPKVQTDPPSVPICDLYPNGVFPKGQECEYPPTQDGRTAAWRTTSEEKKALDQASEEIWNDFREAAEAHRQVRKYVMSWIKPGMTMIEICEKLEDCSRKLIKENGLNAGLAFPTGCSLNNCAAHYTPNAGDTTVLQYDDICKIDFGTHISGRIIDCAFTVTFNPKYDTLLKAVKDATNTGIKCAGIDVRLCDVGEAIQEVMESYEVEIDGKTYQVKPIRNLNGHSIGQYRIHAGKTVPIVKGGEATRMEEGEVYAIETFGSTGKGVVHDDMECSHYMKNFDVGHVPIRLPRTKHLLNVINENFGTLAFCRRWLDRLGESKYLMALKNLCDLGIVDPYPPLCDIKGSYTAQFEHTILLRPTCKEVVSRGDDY

Consider `CO[C@@H]1[C@H](OC(=O)NCCCOCCOCCOCCCNC(=O)[C@H](CSc2nc3c(=O)[nH]c(N)nc3n2Cc2ccc(F)cc2)NC(C)=O)CC[C@]2(CO2)[C@H]1[C@@]1(C)O[C@@H]1CC=C(C)C`, for which the Activity came out at 80%.
